Experimental data as given in patent publication US8242144B2, “Stilbenes and chalcones for the prevention and treatment of cardiovascular diseases” (Resverlogix Corp., priority 2004, dated 2012).

Tests used:
human ApoA-I promoter [1] = assay: ApoA-I promoter induction in Caco-2 intestinal cells (pAI.474-Luc luciferase reporter); assay type: cell-based; conditions: Caco-2 cells, luciferase activity vs untreated/control, average values at 15 μM, 48 hours incubation
Protocol: Briefly, the promoter region of the gene encoding human ApoA-I was isolated and ligated upstream of the firefly luciferase gene to construct the reporter plasmid pAI.474-Luc. This reporter plasmid and pRSV-β-galactosidase (as a control for transfection efficiency) were co-transfected to Caco-2 cells. The Caco-2 cells were then incubated in a MEM selection media containing 20% fetal calf serum supplemented with G418 (final concentration: 0.5 mg/mL, Gibco) to give established strains that stably express from the reporter gene. […] Cells were starved for 24 hrs in MEM selection media containing 0.5% FBS. Then, a solution of a compound of the invention in DMSO or other appropriate solvent was added to the wells at a final concentration of 0 to 100 μM in MEM selection media containing 0.5% FBS.
Measures of luciferase activity were normalized to lysate protein concentrations, measured using Bradford Reagent (BioRad Protein Assay reagent Cat#500-0006). The luciferase activity of cells treated with various concentrations of test compounds was compared to that of control sample (i.e., solvent without any compound of the present invention added) and untreated samples.

human ApoA-I promoter [2] = assay: ApoA-I promoter induction in HepG2 liver cells (pAI.474-Luc luciferase reporter); assay type: cell-based; conditions: luciferase activity vs untreated/control, average values at 15 μM, 48 hours incubation
Protocol: This study determined whether compounds of the invention have an effect on ApoA-I promoter activity expression in HepG2 cells, a liver cell line. Cells were grown under conditions recommended by the ATCC and summarized by Wong.
The promoter region of the gene encoding human ApoA-I was isolated and ligated upstream the structure gene of firefly luciferase to construct a reporter plasmid (pAI.474-Luc). The reporter plasmid, along with pRSV-β-galactosidase (as a control for transfection efficiency) were co-transfected into HepG2 cells. The cells were then incubated in an MEM selection medium containing 20% fetal calf serum supplemented with G418 (final concentration: 0.5 mg/mL, Gibco) to give established strains that stably express from the reporter gene. The strains were seeded to a 6-well culture plates and incubated for 48 hours at 37° C. under 5% carbon dioxide. Cells were starved for 24 hrs in MEM selection media containing 0.5% FBS. Then, a solution of the compounds of the invention in DMSO (or other appropriate solvent) was added to the wells at a final concentration of 0 to 100 μM in MEM selection media containing 0.5% FBS.
After further incubation for 48 hours, the cells were harvested and lysed using Reporter Lysis Buffer (PROMEGA E3971), and 50 μL of luciferase assay reagent (PROMEGA E4550 Luciferase Reporter 1000 assay system) were added to measure luciferase activity with a luminometer (Fluoroskan Ascent FL from Thermo electron Corporation). Measures of luciferase activity were normalized to lysate protein concentrations, measured using Bradford Reagent (Biorad Protein Assay reagent Cat#500-0006).

[3] = Caco-2 permeability (in vitro Caco-2 intestinal transport model); assay type: in vitro ADME, human; conditions: human, Caco-2
From the text: (§1) The Caco-2 cell drug transport model is widely used for screening compounds in drug discovery to assess intestinal transport and predict absorption rates. […] Sun et al., “In vitro testing of drug absorption for drug ‘developability’ assessment: forming an interface between in vitro preclinical data and clinical outcome,” Curr. Opin. Drug Discov. Devel.

Caco-2 cells = assay: as above; assay type: in vitro ADME, human; conditions: in vitro Caco-2 intestinal transport model
From the text: as §1

human ApoA-I promoter [4] = conditions: Caco-2 cells, reported by Wong; cited from earlier work

Row | melting point [°C] | Structure (SMILES) | ApoA-I Promoter Induction (human ApoA-I promoter [1]) | further results
1 |  | COc1ccc(C(=O)/C=C/c2ccc(O)cc2O)cc1 [2,4-Dihydroxy-4′-methoxy-chalcone] | increased | 
2 |  | O=C(/C=C/c1ccc(O)cc1)c1ccc(O)cc1O [4,2′,4′-Trihydroxy-chalcone] | increased | 
3 |  | Oc1ccc(/C=C/c2ccc(O)cc2)cc1 [4,4′-dihydroxy-stilbene] | increased | ApoA-I Promoter Induction (human ApoA-I promoter [2]): increased
4 |  | O=C(/C=C/c1ccc(O)cc1)c1ccccc1 [4-Hydroxy-chalcone] | increased | 
5 |  | COc1ccc(/C=C/C(=O)c2ccccc2)cc1 [4-Methoxy-chalcone] | increased | 
6 |  | Oc1ccc(/C=C/c2cc(O)cc(O)c2)cc1 [Example 1, Resveratrol] | increased | ApoA-I Promoter Induction (human ApoA-I promoter [2]): increased
7 |  | Oc1ccc(/C=C/c2ccc(O)nc2)cc1 [Example 2, 5-[(E)-2-(4-Hydroxy-phenyl)-vinyl]-pyridin-2-ol] | increased | 
8 | 192 to 194 | COc1cc(O)ccc1/C=C/c1ccc(O)cc1 [Example 3, 4-[(E)-2-(4-Hydroxy-phenyl)-vinyl]-3-methoxy-phenol] | increased | ApoA-I Promoter Induction (human ApoA-I promoter [2]): increased
9 | 223 to 225 | OCc1cc(O)ccc1/C=C/c1ccc(O)cc1 [Example 4, 3-Hydroxymethyl-4-[(E)-2-(4-hydroxy-phenyl)-vinyl]-phenol] | increased | Papp [3]: 1.79 ×10⁻⁶ cm/s
10 | 241 to 243 | O=C(O)c1cc(/C=C/c2ccc(O)cc2)ccc1O [Example 5, 2-Hydroxy-5-[(E)-2-(4-hydroxyphenyl)vinyl]benzoic acid] | no | 
11 | 237 to 240 | O=[N+]([O-])c1cc(O)ccc1/C=C/c1ccc(O)cc1 [Example 6, 3-Nitro-4-[(E)-2-(4-hydroxyphenyl)-vinyl]phenol] | increased | ApoA-I Promoter Induction (human ApoA-I promoter [2]): increased; Papp [3]: 1.95 ×10⁻⁶ cm/s
12 | 269 to 271 | CCOC(=O)c1cc(/C=C/c2ccc(O)cc2)ccc1O [Example 7, (E)-Ethyl 2-hydroxy-5-(4-hydroxystyryl) benzoate] | increased | 
13 | 272 to 274 | NC(=O)c1cc(/C=C/c2ccc(O)cc2)ccc1O [Example 8, (E)-2-Hydroxy-5-(4-hydroxystyryl)benzamide] | increased | 
14 | 244 to 245 | CS(=O)(=O)c1cc(O)ccc1/C=C/c1ccc(O)cc1 [Example 9, 4-[(E)-2-(4-Hydroxyphenyl)vinyl]-3-methanesulfonylphenol] |  | 
15 | 229 to 232 | Nc1cc(O)ccc1/C=C/c1ccc(O)cc1 [Example 10, 3-Amino-4-[(E)-2-(4-hydroxy-phenyl)vinyl]phenol] | increased | 
16 | 227 to 229 | CC(=O)Nc1cc(O)ccc1/C=C/c1ccc(O)cc1 [Example 11, N-{5-Hydroxy-2-[(E)-2-(4-hydroxyphenyl)vinyl]phenyl}-acetamide] |  | 
17 | 183.5 to 187.7 | CN(C)C(=O)c1cc(O)ccc1/C=C/c1ccc(O)cc1 [Example 12, 5-Hydroxy-2-[2-(4-hydroxyphenyl)vinyl]-N,N-dimethyl-benzamide] | increased | 
18 |  | Oc1ccc(CCc2ccc(O)cc2)cc1 [Example 17, 4-[4-Hydroxy-phenethyl]-phenol] | increased | ApoA-I Promoter Induction (human ApoA-I promoter [2]): increased
19 |  | O=S(=O)(Nc1ccc(O)cc1)c1ccc(O)cc1 [Example 19, 4-Hydroxy-N-(4-hydroxyphenyl)-benzenesulfonamide] | increased | 
20 |  | O=C(Oc1ccccn1)c1ccc(O)cc1 [Example 20, 4-Hydroxy-benzoic acid pyridin-2-yl ester] |  | Papp [3]: 2 ×10⁻⁶ cm/s
21 |  | Oc1ccc(/N=N/c2ccc(O)cc2)cc1 [Example 21, 4-(4-Hydroxy-phenyl)-azophenol] |  | Papp [3]: 8.73 ×10⁻⁶ cm/s
22 |  | CCCO [Propanol, reference compound] |  | % Transported Paap (Caco-2 cells): 10.1 ×10⁻⁶ cm/s
23 |  | Oc1ccc(/C=C/c2cc(O)cc(O)c2)cc1 [resveratrol] |  | stimulation of ApoA-I promoter activity at 4, 8, 16 and 24 hours following administration (human ApoA-I promoter [4]): significant stimulation
